Experiment in all cases: relative viability (nuclei count vs DMSO), 5 days (fraction); higher = more cells survive
Compound in assay [1]: CN1C=C(C2=CC=CC=C21)/C=C\3/C4=C(C=CC=N4)NC3=O + C[C@]1(O)C[C@@H](c2nc(-c3ccc4ccc(-c5ccccc5)nc4c3)c3c(N)nccn32)C1 [Linsitinib] (partner 1 µM)
The method, boiled down: (§1)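 Relative viability equals treated-well nuclei counts divided by vehicle-well nuclei counts. Counts came from 4× images of lung cancer cell lines grown in 1536-well plates for 5 days after pin-tool dosing on the day after seeding. Dosing used one drug alone or a fixed anchor-drug dose plus five library-drug doses (not always all listed) in √10 steps, and values are medians of duplicate plates.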

Compound in the assay “Trametinib + Bortezomib”: CC(=O)Nc1cccc(-n2c(=O)n(C3CC3)c(=O)c3c(Nc4ccc(I)cc4F)n(C)c(=O)c(C)c32)c1 [Trametinib] + CC(C)C[C@H](NC(=O)[C@H](Cc1ccccc1)NC(=O)c1cnccn1)B(O)O [Bortezomib] (partner 0.002 µM)
The method, boiled down:
as §1

Compound in the assay “Trametinib + Luminespib”: CC(=O)Nc1cccc(-n2c(=O)n(C3CC3)c(=O)c3c(Nc4ccc(I)cc4F)n(C)c(=O)c(C)c32)c1 [Trametinib] + CCNC(=O)c1noc(-c2cc(C(C)C)c(O)cc2O)c1-c1ccc(CN2CCOCC2)cc1 [Luminespib] (partner 0.01 µM)
An outline of the steps: as §1

Compound in the assay “Trametinib + Lapatinib”: CC(=O)Nc1cccc(-n2c(=O)n(C3CC3)c(=O)c3c(Nc4ccc(I)cc4F)n(C)c(=O)c(C)c32)c1 [Trametinib] + CS(=O)(=O)CCNCc1ccc(-c2ccc3ncnc(Nc4ccc(OCc5cccc(F)c5)c(Cl)c4)c3c2)o1 [Lapatinib] (partner 2 µM)
The method, boiled down:
as §1

As for UMC-11, the relative viability in assay [1] (first compound 0.02 µM) amounted to 0.68; in assay [1] (first compound 0.06325 µM) it was 1; in assay [1] (first compound 0.2 µM), 1.07; in assay [1] (first compound 0.6325 µM) it was 1.1; in assay [1] (first compound 2 µM), 1.18; in the assay with Trametinib + Bortezomib (first compound 0.0025 µM), 0.777. Besides, the relative viability in the assay with Trametinib + Bortezomib (first compound 0.007906 µM) worked out at 0.836; in the assay with Trametinib + Bortezomib (first compound 0.025 µM) it was 0.254; with Trametinib + Bortezomib (first compound 0.07906 µM) it was 0.837; with Trametinib + Bortezomib (first compound 0.25 µM), 0.663; with Trametinib + Luminespib (first compound 0.0025 µM), 1.05; with Trametinib + Luminespib (first compound 0.007906 µM), 1.08. Moreover, the relative viability in the assay with Trametinib + Luminespib (first compound 0.025 µM) was determined as 0.951; with Trametinib + Luminespib (first compound 0.07906 µM) it was 1.04; with Trametinib + Luminespib (first compound 0.25 µM), 0.945; in the assay with Trametinib + Lapatinib (first compound 0.0025 µM) it was 0.951; in the assay with Trametinib + Lapatinib (first compound 0.007906 µM) it was 0.973; with Trametinib + Lapatinib (first compound 0.025 µM), 0.348. Moreover, the relative viability was found to be 0.963 with Trametinib + Lapatinib (first compound 0.07906 µM) and 0.758 in the assay with Trametinib + Lapatinib (first compound 0.25 µM).
